Consider 21 compounds from US9365522B2, “Pyrazole amide derivative” (AMGEN INC., priority 2015, dated 2016).

Each structure is given as a SMILES string.

In this assay the target is T1, human RORγ-LBD (Homo sapiens, UniProt P51449).
T1 construct: made in house; host or cells: E. coli (BL-21)
T1 sequence (P51449 262-518): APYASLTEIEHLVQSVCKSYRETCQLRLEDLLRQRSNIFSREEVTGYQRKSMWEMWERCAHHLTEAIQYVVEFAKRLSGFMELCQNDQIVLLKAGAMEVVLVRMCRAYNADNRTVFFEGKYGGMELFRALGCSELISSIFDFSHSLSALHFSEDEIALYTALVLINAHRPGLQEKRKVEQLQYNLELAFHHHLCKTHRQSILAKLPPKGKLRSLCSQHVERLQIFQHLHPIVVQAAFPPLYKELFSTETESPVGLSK
In words: ROR gamma coactivator peptide recruitment Alphascreen assay (RORγ-LBD binding to GRIP1 coactivator peptide). In kind it is biochemical. The note with it: 5 nM human RORγ-LBD, 30 nM 7-β-hydroxycholesterol, 50 nM biotinylated GRIP1 coactivator peptide, overnight incubation at room temperature; read-out: result (pIC50, RORγ coactivator peptide recruitment Alphascreen assay) (converted). The method, boiled down: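 Alphascreen proximity read-out after overnight room-temperature incubation, yielding pIC50 from 1-in-2 compound series (2.5% DMSO final). Mixture: 50 nM biotin-GRIP1 peptide, 30 nM 7-β-hydroxycholesterol agonist, 5 nM recombinant 6×His:Flag human RORγ-LBD (aa 262-518), 50 mM HEPES pH 7.4.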
(In general: In Alpha technology, singlet oxygen from a donor bead excites a nearby acceptor bead.)
Regarding `C[C@@H]1C[C@@H](n2ncc(C(=O)N(CC(=O)c3c(Cl)cccc3Cl)CC3(C(F)(F)F)CC3)c2C(F)(F)F)CC[C@@H]1C(=O)O` [Example 811, (1S,2R,4S)-4-(4-((2-(2,6-dichlorophenyl)-2-oxoethyl)((1-(trifluoromethyl)cyclopropyl)methyl)carbamoyl)-5-(trifluoromethyl)-1H-pyrazol-1-yl)-2-methylcyclohexanecarboxylic acid], the IC50 was 1.78 nM. Turning to `C[C@@H]1C[C@H](n2ncc(C(=O)N(CC(=O)c3c(Cl)cncc3Cl)CC(C)(C)C)c2C(F)(F)F)CC[C@H]1C(=O)O` [Example 812, (1R,2R,4R)-4-(4-((2-(3,5-dichloro-4-pyridinyl)-2-oxoethyl)(2,2-dimethylpropyl)carbamoyl)-5-(trifluoromethyl)-1H-pyrazol-1-yl)-2-methylcyclohexanecarboxylic acid], the IC50 is 9.33 nM. For the compound `C[C@]1(CN(CC(=O)c2c(Cl)ccc(F)c2Cl)C(=O)c2cnn([C@H]3CC[C@](C)(C(=O)O)CC3)c2C(F)(F)F)CCCO1` [Example 814, trans-4-(4-((2-(2,6-dichloro-3-fluorophenyl)-2-oxoethyl)(((2R)-2-methyltetrahydro-2-furanyl)methyl)carbamoyl)-5-(trifluoromethyl)-1H-pyrazol-1-yl)-1-methylcyclohexanecarboxylic acid], the IC50 was 9.12 nM. `C[C@@]1(CN(CC(=O)c2c(Cl)ccc(F)c2Cl)C(=O)c2cnn([C@H]3CC[C@](C)(C(=O)O)CC3)c2C(F)(F)F)CCCO1` [Example 815, trans-4-(4-((2-(2,6-dichloro-3-fluorophenyl)-2-oxoethyl)(((2S)-2-methyltetrahydro-2-furanyl)methyl)carbamoyl)-5-(trifluoromethyl)-1H-pyrazol-1-yl)-1-methylcyclohexanecarboxylic acid]: the IC50 was 12.9 nM. With `C[C@@H]1C[C@@H](n2ncc(C(=O)N(CC(=O)c3c(Cl)cncc3Cl)[C@H]3CCC34CCC4)c2C(F)(F)F)CC[C@@H]1C(=O)O` [Example 816, (1S,2R,4S)-4-(4-((2-(3,5-dichloro-4-pyridinyl)-2-oxoethyl)((1S)-spiro[3.3]hept-1-yl)carbamoyl)-5-(trifluoromethyl)-1H-pyrazol-1-yl)-2-methylcyclohexanecarboxylic acid], the IC50 is 4.47 nM. `C[C@@H]1C[C@@H](n2ncc(C(=O)N(CC(=O)c3c(Cl)cncc3Cl)[C@@H]3CCC34CCC4)c2C(F)(F)F)CC[C@@H]1C(=O)O` [Example 817, (1S,2R,4S)-4-(4-((2-(3,5-dichloro-4-pyridinyl)-2-oxoethyl)((1R)-spiro[3.3]hept-1-yl)carbamoyl)-5-(trifluoromethyl)-1H-pyrazol-1-yl)-2-methylcyclohexanecarboxylic acid]: the IC50 was 64.6 nM. With `C[C@]1(C(=O)O)CC[C@H](n2ncc(C(=O)N(CC(=O)c3c(Cl)cncc3Cl)C[C@@H]3CC3(F)F)c2C(F)(F)F)CC1` [Example 818, trans-4-(4-((2-(3,5-dichloro-4-pyridinyl)-2-oxoethyl)(((1S)-2,2-difluorocyclopropyl)methyl)carbamoyl)-5-(trifluoromethyl)-1H-pyrazol-1-yl)-1-methylcyclohexanecarboxylic acid] the figure was 7.24 nM; with `C[C@]1(C(=O)O)CC[C@H](n2ncc(C(=O)N(CC(=O)c3c(Cl)cncc3Cl)C[C@H]3CC3(F)F)c2C(F)(F)F)CC1` [Example 819, trans-4-(4-((2-(3,5-dichloro-4-pyridinyl)-2-oxoethyl)(((1R)-2,2-difluorocyclopropyl)methyl)carbamoyl)-5-(trifluoromethyl)-1H-pyrazol-1-yl)-1-methylcyclohexanecarboxylic acid], 50.1 nM. Under `C[C@@H]1C[C@@H](n2ncc(C(=O)N(CC(=O)c3c(Cl)cncc3Cl)C[C@H]3CCCO3)c2C(F)(F)F)CC[C@@H]1C(=O)O` [Example 820, (1S,2R,4S)-4-(4-((2-(3,5-dichloro-4-pyridinyl)-2-oxoethyl)((2R)-tetrahydro-2-furanylmethyl)carbamoyl)-5-(trifluoromethyl)-1H-pyrazol-1-yl)-2-methylcyclohexanecarboxylic acid] stands 100 nM. With `CC1(C)CC[C@H](CN(CC(=O)c2c(Cl)cccc2Cl)C(=O)c2cnn([C@H]3CC[C@](C)(C(=O)O)CC3)c2C(F)(F)F)O1` [Example 821, trans-4-(4-((2-(2,6-dichlorophenyl)-2-oxoethyl)(((2R)-5,5-dimethyltetrahydro-2-furanyl)methyl)carbamoyl)-5-(trifluoromethyl)-1H-pyrazol-1-yl)-1-methylcyclohexanecarboxylic acid] the figure was 9.77 nM; with `CC1(CN(CC(=O)c2c(Cl)cncc2Cl)C(=O)c2cnn([C@@H]3CC[C@@H](C(=O)O)C(C)(C)C3)c2C(F)(F)F)CCC1` [Example 824, (1R,4R)-4-(4-((2-(3,5-dichloro-4-pyridinyl)-2-oxoethyl)((1-methylcyclobutyl)methyl)carbamoyl)-5-(trifluoromethyl)-1H-pyrazol-1-yl)-2,2-dimethylcyclohexanecarboxylic acid], 28.8 nM; with `CC1(CN(CC(=O)c2c(Cl)cncc2Cl)C(=O)c2cnn([C@H]3CC[C@H](C(=O)O)C(C)(C)C3)c2C(F)(F)F)CCC1` [Example 825, (1S,4S)-4-(4-((2-(3,5-dichloro-4-pyridinyl)-2-oxoethyl)((1-methylcyclobutyl)methyl)carbamoyl)-5-(trifluoromethyl)-1H-pyrazol-1-yl)-2,2-dimethylcyclohexanecarboxylic acid], 1.38 nM. As to `C[C@@H]1C[C@@H](n2ncc(C(=O)N(CC(=O)c3c(Cl)cncc3Cl)C[C@H]3CCC(C)(C)O3)c2C(F)(F)F)CC[C@@H]1C(=O)O` [Example 826, (1S,2R,4S)-4-(4-((2-(3,5-dichloro-4-pyridinyl)-2-oxoethyl)(((2R)-5,5-dimethyltetrahydro-2-furanyl)methyl)carbamoyl)-5-(trifluoromethyl)-1H-pyrazol-1-yl)-2-methylcyclohexanecarboxylic acid], the IC50 was 18.6 nM. Regarding `C[C@@H]1C[C@@H](n2ncc(C(=O)N(CC(=O)c3c(Cl)cncc3Cl)CC(C)(C)F)c2C(F)(F)F)CC[C@@H]1C(=O)O` [Example 829, (1S,2R,4S)-4-(4-((2-(3,5-dichloro-4-pyridinyl)-2-oxoethyl)(2-fluoro-2-methylpropyl)carbamoyl)-5-(trifluoromethyl)-1H-pyrazol-1-yl)-2-methylcyclohexanecarboxylic acid], the IC50 is 9.55 nM. Under `C[C@@H]1C[C@@H](n2ncc(C(=O)N(CC(=O)c3c(Cl)cncc3Cl)CC3(C(F)(F)F)CC3)c2C(F)(F)F)CC[C@@H]1C(=O)O` [Example 830, (1S,2R,4S)-4-(4-((2-(3,5-dichloro-4-pyridinyl)-2-oxoethyl)((1-(trifluoromethyl)cyclopropyl)methyl)carbamoyl)-5-(trifluoromethyl)-1H-pyrazol-1-yl)-2-methylcyclohexanecarboxylic acid] stands 2.69 nM.

For `C[C@@H]1C[C@@H](n2ncc(C(=O)N(CC(=O)c3c(Cl)cccc3Cl)CC(C)(C)F)c2C(F)(F)F)CC[C@@H]1C(=O)O` [Example 831, (1S,2R,4S)-4-(4-((2-(2,6-dichlorophenyl)-2-oxoethyl)(2-fluoro-2-methylpropyl)carbamoyl)-5-(trifluoromethyl)-1H-pyrazol-1-yl)-2-methylcyclohexanecarboxylic acid], the IC50 is 2.63 nM. Under `CC(C)(F)CN(CC(=O)c1c(Cl)cccc1Cl)C(=O)c1cnn([C@H]2CC[C@](C)(C(=O)O)CC2)c1C(F)(F)F` [Example 832, trans-4-(4-((2-(2,6-dichlorophenyl)-2-oxoethyl)(2-fluoro-2-methylpropyl)carbamoyl)-5-(trifluoromethyl)-1H-pyrazol-1-yl)-1-methylcyclohexanecarboxylic acid] stands 3.89 nM; under `Cc1cc(Cl)c(C(=O)CN(CC2CCC(C)(C)CC2)C(=O)c2cnn([C@H]3CC[C@@H](C(=O)O)CC3)c2C(F)(F)F)c(Cl)n1` [Example 833, cis-4-(4-((2-(2,4-dichloro-6-methyl-3-pyridinyl)-2-oxoethyl)((4,4-dimethylcyclohexyl)methyl)carbamoyl)-5-(trifluoromethyl)-1H-pyrazol-1-yl)cyclohexanecarboxylic acid], 5.89 nM. With `Cc1cc(Cl)c(C(=O)CN(CC2CCCCC2)C(=O)c2cnn([C@H]3CC[C@@H](C(=O)O)CC3)c2C(F)(F)F)c(Cl)n1` [Example 834, cis-4-(4-((cyclohexylmethyl)(2-(2,4-dichloro-6-methyl-3-pyridinyl)-2-oxoethyl)carbamoyl)-5-(trifluoromethyl)-1H-pyrazol-1-yl)cyclohexanecarboxylic acid] the figure was 10 nM; with `Cc1cc(Cl)c(C(=O)CN(CC2CCC(C)(C)CC2)C(=O)c2cnn([C@H]3CC[C@](C)(C(=O)O)CC3)c2C(F)(F)F)c(Cl)n1` [Example 835, trans-4-(4-((2-(2,4-dichloro-6-methyl-3-pyridinyl)-2-oxoethyl)((4,4-dimethylcyclohexyl)methyl)carbamoyl)-5-(trifluoromethyl)-1H-pyrazol-1-yl)-1-methylcyclohexanecarboxylic acid], 251 nM; with `CC(C)(C)CN(CC(=O)c1c(Cl)cncc1Cl)C(=O)c1cnn([C@H]2C[C@]3(C[C@H](C(=O)O)C3)C2)c1C(F)(F)F` (stereo partly drawn) [Example 836, (4R/S)-6-(4-((2-(3,5-dichloro-4-pyridinyl)-2-oxoethyl)(2,2-dimethylpropyl)carbamoyl)-5-(trifluoromethyl)-1H-pyrazol-1-yl)spiro[3.3]heptane-2-carboxylic acid], 30.9 nM.
